Results taken from article PMC5478727, “A Novel Small Molecule GDNF Receptor RET Agonist, BT13, Promotes Neurite Growth from Sensory Neurons in Vitro and Attenuates Experimental Neuropathy in the Rat” (Frontiers in Pharmacology, 2017).

Key:
[1] = system: Akt and Erk phosphorylation in MG87TrkA; assay: Erk1/2 and Akt phosphorylation assay in MG87TrkA cells; type: cell-based, murine; details: BT13 10–100 μM, NGF positive control
Method: (§1) MG87RET, MG87TrkA, or MG87TrkB were plated on 35 mm tissue culture dishes 1–2 days before the experiment to achieve 90–95% of confluency of the cells at the day of stimulation with tested substances. If necessary, cells were transfected with 4 μg/well of GFRα1-, GFRα3-, or green fluorescent protein (GFP)-expressing plasmid using Lipofectamine 2000 (Invitrogen) for DNA delivery as described by manufacturer. Before the experiment cells were starved in serum-free DMEM containing 15 mM HEPES, pH 7.2 and 1% DMSO for 4 h and stimulated with BT13 or neurotrophic factors. Then cells were washed once with ice-cold PBS containing 1 mM Na3VO4 and 1 mM NaF and lysed on ice in 1 ml per well of RIPA-modified buffer (50 mM Tris-HCl, pH 7.4, 150 mM NaCl, 1 mM EDTA, 1% NP-40, 1% TX-100, 10% glycerol, EDTA-free protease inhibitor cocktail (Roche), 1 mM Na3VO4, 2.5 mg/ml of sodium deoxycholate, 1 mM NaF). Plates were incubated at +4°C on the horizontal shaker for 30 min with vigorous shaking. Afterwards, 80–100 μl aliquot was taken from each well to prepare whole cell lysates. This aliquot was mixed with equal volume of 2x Laemmli loading buffer (4% SDS, 20% glycerol, 10% 2-mercaptoethanol, 0.004% bromphenol blue, 0.125 M Tris HCl, pH 6.8) and boiled for 10 min at 100°C. Remaining cell lysates were used for immunoprecipitation of RET or Trk receptors. […]

TrkA = TrkA phosphorylation assay in MG87TrkA cells; type: cell-based; details: BT13 10–100 μM, NGF positive control
Method: as §1

[2] = system: adult rat lumbar DRG sensory neurons; assay: Neurite outgrowth from cultured DRG neurons; type: cell-based; details: NGF 10 ng/ml
Method: Cultured lumbar DRG (L3–L5) neurons were prepared using a published method (O'Mullane et al., [2013]). After plating onto poly-L-ornithine (5 μg/ml)/laminin (5 μg/ml) coated coverslips for 1 h, DRG neurons were cultured for 24–30 h in fresh Neurobasal A/B27. GFLs, BT13, NGF, and vehicle control were added at the start of this period for a 24–30 h treatment, except when preceded by pre-treatment (1 h) with inhibitors (50 μM LY294002; 2 μM SU6656, […]; Biomol Research Laboratories, Plymouth Meeting, PA, USA). DRG neurons were then fixed (4% paraformaldehyde) and processed for immunocytochemistry with 1:200 Mouse anti-β III tubulin/AlexaFluor 594 (Sigma-Aldrich Cat# T8660 RRID:AB_477590) and 1:5,000 rabbit anti-calcitonin gene-related peptide/AlexaFluor 488 (Sigma-Aldrich Cat# C8198 RRID:AB_259091) and DAPI for nuclear staining (0.5 μg/ml, Molecular Probes). Image analysis of multichannel 12 bit Zeiss .ZVI or .TIF files (captured with a Zeiss Imager.M1/MRm camera/Zen software; Carl Zeiss Australia, North Ryde, NSW, Australia) was then performed by a researcher blinded to the experimental condition. Neurite initiation was measured by a single parameter (proportion of neurons with neurites longer than the soma diameter). Neurite elongation was measured by batch processing (HCA-Vision software; CSIRO Mathematical and Information Sciences, North Ryde, NSW, Australia) to obtain four parameters—Root number: number of primary neurites; Maximum length: length of longest neurite; Branch points: number of neurite branch points; and Total length: sum of neurite lengths (Kalous and Keast, [2010]; Kalous et al., [2012]). The number of neurons of each immunocytochemical class counted on each coverslip (technical replicates) was 50 for neurite initiation and 20 for neurite elongation. A minimum of three cultures from different rats (biological replicates) were analyzed for each treatment group.

[3] = target: COMT (catechol-O-methyl transferase); assay: CEREP COMT (catechol-O-methyl transferase); type: biochemical; details: reference compound; Cat. No. 0457
[4] = target: T1, Protein Serine/Threonine Phosphatase, PP2A (Homo sapiens, UniProt P67775); assay: CEREP Protein Serine/Threonine Phosphatase, PP2A; type: biochemical
T1 construct: purchased CEREP (contract assay) 3953
T1 sequence (P67775 whole entry): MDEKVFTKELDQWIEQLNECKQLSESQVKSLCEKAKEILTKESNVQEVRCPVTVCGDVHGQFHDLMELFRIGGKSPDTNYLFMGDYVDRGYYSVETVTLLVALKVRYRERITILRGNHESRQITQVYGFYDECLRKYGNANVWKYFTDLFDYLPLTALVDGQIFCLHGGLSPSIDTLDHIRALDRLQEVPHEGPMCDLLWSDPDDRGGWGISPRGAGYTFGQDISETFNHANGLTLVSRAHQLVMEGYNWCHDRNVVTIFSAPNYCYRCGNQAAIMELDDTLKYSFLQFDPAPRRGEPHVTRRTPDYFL

[5] = system: Akt and Erk phosphorylation in MG87TrkB; assay: Erk1/2 and Akt phosphorylation assay in MG87TrkB cells; type: cell-based, murine; details: BT13 10–100 μM, BDNF positive control
Method: as §1

TrkB = target: T2, TrkB (Rattus norvegicus, UniProt Q63604); assay: TrkB phosphorylation assay in MG87TrkB cells; type: cell-based; details: BT13 10–100 μM, BDNF positive control
T2 construct: expressed in transfected cells; host or cells: MG87 murine fibroblasts (MG87TrkB)
T2 sequence (Q63604 32-821): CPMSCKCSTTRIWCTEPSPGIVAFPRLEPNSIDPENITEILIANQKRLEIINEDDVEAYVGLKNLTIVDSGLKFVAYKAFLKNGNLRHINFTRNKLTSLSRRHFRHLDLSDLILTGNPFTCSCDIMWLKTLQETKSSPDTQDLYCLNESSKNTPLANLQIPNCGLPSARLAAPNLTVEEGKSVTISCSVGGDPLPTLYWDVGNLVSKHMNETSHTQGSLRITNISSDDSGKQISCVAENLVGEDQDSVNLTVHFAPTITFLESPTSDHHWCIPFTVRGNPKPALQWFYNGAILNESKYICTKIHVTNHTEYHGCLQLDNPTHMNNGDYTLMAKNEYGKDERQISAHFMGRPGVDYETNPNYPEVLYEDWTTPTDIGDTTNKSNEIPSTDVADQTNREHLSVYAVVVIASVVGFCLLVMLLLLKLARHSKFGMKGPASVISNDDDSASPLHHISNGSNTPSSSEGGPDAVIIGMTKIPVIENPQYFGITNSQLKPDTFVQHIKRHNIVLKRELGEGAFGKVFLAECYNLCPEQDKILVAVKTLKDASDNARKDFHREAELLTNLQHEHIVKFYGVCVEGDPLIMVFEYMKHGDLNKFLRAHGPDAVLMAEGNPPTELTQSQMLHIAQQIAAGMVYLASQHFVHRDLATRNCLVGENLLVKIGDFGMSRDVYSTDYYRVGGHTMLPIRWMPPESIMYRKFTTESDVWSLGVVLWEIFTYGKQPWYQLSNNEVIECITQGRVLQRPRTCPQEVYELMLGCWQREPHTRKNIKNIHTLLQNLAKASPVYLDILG
Method: as §1

[6] = CGRP-positive neurons, vs control, BT13 100 ng/ml

nerve growth factor [NGF] was tested, and the “Akt and Erk phosphorylation” value [1] was “promoted Akt and Erk phosphorylation”, the “TrkA phosphorylation, Western blotting” value (TrkA) was “responded” and the “neurite initiation or extension” value ([2]; CGRP-negative neurons, ARTN 30 ng/ml, BT13 100 ng/ml) was “no effect”. For the same molecule, the neurite initiation ([2]; CGRP-positive neurons, ARTN 30 ng/ml, BT13 100 ng/ml, overnight) was “significantly increased”, the “neurite elongation, root number, mean difference” value ([2]; CGRP-positive neurons, vs control) was 3 ± 1 and the “neurite elongation, branch points, mean difference” value [2, 6] was 48 ± 3. For the same molecule, the “neurite elongation, maximum length, mean difference” value [2, 6] was 99 ± 8 μm, the “neurite elongation, total length, mean difference” value [2, 6] was 1,421 ± 108 μm and the “proportion of DRG neurons that expressed CGRP in culture” value ([2]; ARTN 30 ng/ml, BT13 100 ng/ml) was “did not alter”.

`O=C(c1cc(O)c(O)c([N+](=O)[O-])c1)c1ccccc1F` [Ro 41-0960, reference compound] gave an IC50 [3] of 28 nM.

`COC[C@@H]([C@H](O)[C@H](O)C(=O)NCC[C@H](C)c1nc(/C=C/C[C@@H]2O[C@]3(C[C@@H](O)[C@@H]2C)O[C@H]([C@H](C[C@H](O)[C@H](C)[C@H](O)[C@H](C)/C=C(C)/C(C)=C/C=C/C(C)=C\C#N)OC)[C@H](OP(=O)(O)O)C3(C)C)co1)N(C)C` [Calyculin A, reference compound] gave an IC50 [4] of 0.49 nM.

B1: brain-derived neurotrophic factor (protein, UniProt P23560 19-247, looked up)
Neurotrophic factor BDNF …: APMKEANIRGQGGLAYPGVRTHGTLESVNGPKAGSRGLTSLADTFEHVIEELLDEDQKVRPNEENNKDADLYTSRVMLSSQVPLEPPLLFLLEEYKNYLDAANMSMRVRRHSDPARRGELSVCDSISEWVTAADKKTAVDMSGGTVTVLEKVPVSKGQLKQYFYETKCNPMGYTKEGCRGIDKRHWNSQCRTTQSYVRALTMDSKKRIGWRFIRIDTSCVCTLTIKRGR
notes: neurotrophin, natural ligand of TrkB
In the case of B1, the “Akt and Erk phosphorylation” value [5] is reported as “promoted Akt and Erk phosphorylation” and the “TrkB phosphorylation, Western blotting” value (TrkB) is reported as “responded”.
